Assay results: patent US10952436B2, “Microbiocidal quinoline (thio)carboxamide derivatives” (SYNGENTA PARTICIPATIONS AG, priority 2017, dated 2021)

Legend:
[1] = system: Botryotinia fuckeliana (Botrytis cinerea); test: Botryotinia fuckeliana (Botrytis cinerea)/Liquid Culture (Gray Mould); format: cell-based; details: 200 ppm, liquid culture, compared to untreated control, 3-4 days after application, read-out: control of Botryotinia fuckeliana
Fusarium culmorum [2] = test: whole plant or invertebrate; format: in vivo; details: in Triticum aestivum, read-out: control of Fusarium culmorum
Fusarium culmorum [3] = test: microbe, parasite or virus in culture; format: cell-based; details: read-out: control of Fusarium culmorum
[4] = system: Glomerella lagenarium (Colletotrichum lagenarium); test: Glomerella lagenarium (Colletotrichum lagenarium)/Liquid Culture (Anthracnose); format: cell-based; details: Colletotrichum orbiculare; 200 ppm; liquid culture, compared to untreated control, 3-4 days after application; read-out: control of Glomerella lagenarium
[5] = system: Monographella nivalis (Microdochium nivale); test: Monographella nivalis (Microdochium nivale)/Liquid Culture (Foot Rot Cereals); format: cell-based; details: 200 ppm, liquid culture, compared to untreated control, 4-5 days after application, read-out: control of Monographella nivalis
[6] = system: Magnaporthe grisea (Pyricularia oryzae); test: microbe, parasite or virus in culture; format: cell-based; details: read-out: control of Magnaporthe grisea

## C=C(Cl)CC(Cc1ccccc1)C(=O)Nc1cnc2c(F)cccc2c1C (stereo not shown) [Compound E-5, 2-benzyl-4-chloro-N-(8-fluoro-4-methyl-3-quinolyl)pent-4-enamide]
[1]
  inhibition of growth at 200 ppm: ≥ 80%
Fusarium culmorum [2]
  pest or weed control at 200 ppm: ≥ 80%
other
  melting point: 53 to 58 °C
Fusarium culmorum [3]
  inhibition of growth at 200 ppm: ≥ 80%
[4]
  inhibition of growth at 200 ppm: ≥ 80%
[5]
  inhibition of growth at 200 ppm: ≥ 80%

## CC(C)CC(C)(Cc1ccccc1)C(=O)Nc1cnc2c(Cl)cccc2c1 (stereo not shown) [Compound E-9, 2-benzyl-N-(8-chloro-3-quinolyl)-2,4-dimethyl-pentanamide]
[1]
  inhibition of growth at 200 ppm: ≥ 80%
[6]
  inhibition of growth at 200 ppm: ≥ 80%
other
  melting point: 163 to 165 °C
Fusarium culmorum [3]
  inhibition of growth at 200 ppm: ≥ 80%
[4]
  inhibition of growth at 200 ppm: ≥ 80%
[5]
  inhibition of growth at 200 ppm: ≥ 80%

## C/C=C\CC(C)(Cc1ccccc1)C(=O)Nc1cnc2c(F)cccc2c1 (stereo not shown) [Compound E-28, (Z)-2-benzyl-N-(8-fluoro-3-quinolyl)-2-methyl-hex-4-enamide]
[1]
  inhibition of growth at 200 ppm: ≥ 80%
[6]
  inhibition of growth at 200 ppm: ≥ 80%
Fusarium culmorum [2]
  pest or weed control at 200 ppm: ≥ 80%
other
  melting point: 128 to 130 °C
Fusarium culmorum [3]
  inhibition of growth at 200 ppm: ≥ 80%
[4]
  inhibition of growth at 200 ppm: ≥ 80%
[5]
  inhibition of growth at 200 ppm: ≥ 80%

## CC(Cc1ccccc1)C(=O)Nc1cnc2c(F)cccc2c1 (stereo not shown) [Compound E-31, N-(8-fluoro-3-quinolyl)-2-methyl-3-phenyl-propanamide]
[1]
  inhibition of growth at 200 ppm: ≥ 80%
[6]
  inhibition of growth at 200 ppm: ≥ 80%
other
  melting point: 188 to 190 °C
Fusarium culmorum [3]
  inhibition of growth at 200 ppm: ≥ 80%
[4]
  inhibition of growth at 200 ppm: ≥ 80%

## COCN(C(=O)C(C)(Cc1ccccc1)CC(F)(F)F)c1cnc2c(F)cccc2c1 (stereo not shown) [Compound E-33, 2-benzyl-4,4,4-trifluoro-N-(8-fluoro-3-quinolyl)-N-(methoxymethyl)-2-methyl-butanamide]
[1]
  inhibition of growth at 200 ppm: ≥ 80%
[6]
  inhibition of growth at 200 ppm: ≥ 80%
other
  melting point: 108 to 110 °C
Fusarium culmorum [3]
  inhibition of growth at 200 ppm: ≥ 80%
[4]
  inhibition of growth at 200 ppm: ≥ 80%

## COC(Cc1ccccc1)(CC(C)C)C(=O)Nc1cc2cccc(F)c2nc1C (stereo not shown) [Compound E-37, 2-benzyl-N-(8-fluoro-2-methyl-3-quinolyl)-2-methoxy-4-methyl-pentanamide]
[1]
  inhibition of growth at 200 ppm: ≥ 80%
[6]
  inhibition of growth at 200 ppm: ≥ 80%
Fusarium culmorum [2]
  pest or weed control at 200 ppm: ≥ 80%
other
  melting point: 92 to 94 °C
Fusarium culmorum [3]
  inhibition of growth at 200 ppm: ≥ 80%
[4]
  inhibition of growth at 200 ppm: ≥ 80%
[5]
  inhibition of growth at 200 ppm: ≥ 80%

## COC(Cc1ccccc1)(CC(C)C)C(=O)Nc1cnc2c(F)cccc2c1 (stereo not shown) [Compound E-38, 2-benzyl-N-(8-fluoro-3-quinolyl)-2-methoxy-4-methyl-pentanamide]
[1]
  inhibition of growth at 200 ppm: ≥ 80%
[6]
  inhibition of growth at 200 ppm: ≥ 80%
Fusarium culmorum [2]
  pest or weed control at 200 ppm: ≥ 80%
other
  melting point: 133 to 135 °C
Fusarium culmorum [3]
  inhibition of growth at 200 ppm: ≥ 80%
[4]
  inhibition of growth at 200 ppm: ≥ 80%

## CN(C(=O)C(C)(Cc1ccccc1)CC(F)(F)F)c1cnc2c(F)cccc2c1 (stereo not shown) [Compound E-42, 2-benzyl-4,4,4-trifluoro-N-(8-fluoro-3-quinolyl)-N,2-dimethyl-butanamide]
[1]
  inhibition of growth at 200 ppm: ≥ 80%
[6]
  inhibition of growth at 200 ppm: ≥ 80%
other
  melting point: 137 to 139 °C
Fusarium culmorum [3]
  inhibition of growth at 200 ppm: ≥ 80%
[4]
  inhibition of growth at 200 ppm: ≥ 80%

## COC(C)(Cc1ccccc1)C(=O)Nc1cnc2c(F)cccc2c1 (stereo not shown) [Compound E-43, N-(8-fluoro-3-quinolyl)-2-methoxy-2-methyl-3-phenyl-propanamide]
[1]
  inhibition of growth at 200 ppm: ≥ 80%
[6]
  inhibition of growth at 200 ppm: ≥ 80%
Fusarium culmorum [2]
  pest or weed control at 200 ppm: ≥ 80%
other
  melting point: 107 to 109 °C
Fusarium culmorum [3]
  inhibition of growth at 200 ppm: ≥ 80%
[4]
  inhibition of growth at 200 ppm: ≥ 80%
[5]
  inhibition of growth at 200 ppm: ≥ 80%

## CC(C)=CC(C)(Cc1ccccc1)C(=O)Nc1cnc2c(F)cccc2c1 (stereo not shown) [Compound E-48, 2-benzyl-N-(8-fluoro-3-quinolyl)-2,4-dimethyl-pent-3-enamide]
[1]
  inhibition of growth at 200 ppm: ≥ 80%
[6]
  inhibition of growth at 200 ppm: ≥ 80%
Fusarium culmorum [2]
  pest or weed control at 200 ppm: ≥ 80%
other
  melting point: 167 to 169 °C
Fusarium culmorum [3]
  inhibition of growth at 200 ppm: ≥ 80%
[4]
  inhibition of growth at 200 ppm: ≥ 80%

## CC(Cc1ccccc1)(CC(F)(F)F)C(=O)Nc1cnc2cccc(F)c2c1 (stereo not shown) [Compound E-49, 2-benzyl-4,4,4-trifluoro-N-(5-fluoro-3-quinolyl)-2-methyl-butanamide]
[1]
  inhibition of growth at 200 ppm: ≥ 80%
[6]
  inhibition of growth at 200 ppm: ≥ 80%
other
  melting point: 140 to 142 °C
Fusarium culmorum [3]
  inhibition of growth at 200 ppm: ≥ 80%

## CC(Cc1ccccc1)(CC(F)(F)F)C(=O)Nc1cnc2cc(F)ccc2c1 (stereo not shown) [Compound E-52, 2-benzyl-4,4,4-trifluoro-N-(7-fluoro-3-quinolyl)-2-methyl-butanamide]
[1]
  inhibition of growth at 200 ppm: ≥ 80%
[6]
  inhibition of growth at 200 ppm: ≥ 80%
other
  melting point: 180 to 182 °C
Fusarium culmorum [3]
  inhibition of growth at 200 ppm: ≥ 80%
[4]
  inhibition of growth at 200 ppm: ≥ 80%
[5]
  inhibition of growth at 200 ppm: ≥ 80%

## C=C(CC)CC(C)(Cc1ccccc1)C(=O)Nc1cnc2c(F)cccc2c1 (stereo not shown) [Compound E-54, 2-benzyl-N-(8-fluoro-3-quinolyl)-2-methyl-4-methylene-hexanamide]
[1]
  inhibition of growth at 200 ppm: ≥ 80%
[6]
  inhibition of growth at 200 ppm: ≥ 80%
other
  melting point: 118 to 120 °C
Fusarium culmorum [3]
  inhibition of growth at 200 ppm: ≥ 80%
[4]
  inhibition of growth at 200 ppm: ≥ 80%

## O=C(Nc1cnc2c(F)cccc2c1)C(Cc1ccccc1)CC(F)(F)Cl (stereo not shown) [Compound E-58, 2-benzyl-4-chloro-4,4-difluoro-N-(8-fluoro-3-quinolyl)butanamide]
[1]
  inhibition of growth at 200 ppm: ≥ 80%
[6]
  inhibition of growth at 200 ppm: ≥ 80%
Fusarium culmorum [2]
  pest or weed control at 200 ppm: ≥ 80%
other
  melting point: 65 to 70 °C
Fusarium culmorum [3]
  inhibition of growth at 200 ppm: ≥ 80%
[4]
  inhibition of growth at 200 ppm: ≥ 80%
[5]
  inhibition of growth at 200 ppm: ≥ 80%

## Cc1cccc2cc(NC(=O)C(C)(Cc3ccccc3)CC(F)(F)F)cnc12 (stereo not shown) [Compound E-59, 2-benzyl-4,4,4-trifluoro-2-methyl-N-(8-methyl-3-quinolyl)butanamide]
[1]
  inhibition of growth at 200 ppm: ≥ 80%
[6]
  inhibition of growth at 200 ppm: ≥ 80%
Fusarium culmorum [2]
  pest or weed control at 200 ppm: ≥ 80%
other
  melting point: 123 to 125 °C
Fusarium culmorum [3]
  inhibition of growth at 200 ppm: ≥ 80%
[4]
  inhibition of growth at 200 ppm: ≥ 80%
[5]
  inhibition of growth at 200 ppm: ≥ 80%

## CC(Cc1ccccc1)(CC(F)(F)F)C(=O)Nc1cnc2c(F)c(F)ccc2c1 (stereo not shown) [Compound E-60, 2-benzyl-N-(7,8-difluoro-3-quinolyl)-4,4,4-trifluoro-2-methyl-butanamide]
[1]
  inhibition of growth at 200 ppm: ≥ 80%
[6]
  inhibition of growth at 200 ppm: ≥ 80%
Fusarium culmorum [2]
  pest or weed control at 200 ppm: ≥ 80%
other
  melting point: 183 to 186 °C
Fusarium culmorum [3]
  inhibition of growth at 200 ppm: ≥ 80%
[4]
  inhibition of growth at 200 ppm: ≥ 80%
[5]
  inhibition of growth at 200 ppm: ≥ 80%

## C=C(C)CC(C)(Cc1ccccc1)C(=O)Nc1cnc2c(Br)cccc2c1 (stereo not shown) [Compound E-63, 2-benzyl-N-(8-bromo-3-quinolyl)-2,4-dimethyl-pent-4-enamide]
[1]
  inhibition of growth at 200 ppm: ≥ 80%
[6]
  inhibition of growth at 200 ppm: ≥ 80%
Fusarium culmorum [2]
  pest or weed control at 200 ppm: ≥ 80%
other
  melting point: 165 to 169 °C
Fusarium culmorum [3]
  inhibition of growth at 200 ppm: ≥ 80%

## C=CCC(C)(Cc1ccccc1)C(=O)Nc1cnc2c(F)cccc2c1 (stereo not shown) [Compound E-78, 2-benzyl-N-(8-fluoro-3-quinolyl)-2-methyl-pent-4-enamide]
[1]
  inhibition of growth at 200 ppm: ≥ 80%
Fusarium culmorum [2]
  pest or weed control at 200 ppm: ≥ 80%
other
  melting point: 146 to 149 °C
Fusarium culmorum [3]
  inhibition of growth at 200 ppm: ≥ 80%
[4]
  inhibition of growth at 200 ppm: ≥ 80%
[5]
  inhibition of growth at 200 ppm: ≥ 80%

## Cc1c(NC(=O)C(C)(Cc2ccccc2)CC(C)C)cnc2c(F)cccc12 (stereo not shown) [Compound E-84, 2-benzyl-N-(8-fluoro-4-methyl-3-quinolyl)-2,4-dimethyl-pentanamide]
[1]
  inhibition of growth at 200 ppm: ≥ 80%
Fusarium culmorum [2]
  pest or weed control at 200 ppm: ≥ 80%
other
  melting point: 73 to 79 °C
Fusarium culmorum [3]
  inhibition of growth at 200 ppm: ≥ 80%
[4]
  inhibition of growth at 200 ppm: ≥ 80%
[5]
  inhibition of growth at 200 ppm: ≥ 80%

## CC(C)(C)C(Cc1ccccc1)C(=O)Nc1cnc2c(F)cccc2c1 (stereo not shown) [Compound E-88, 2-benzyl-N-(8-fluoro-3-quinolyl)-3,3-dimethyl-butanamide]
[1]
  inhibition of growth at 200 ppm: ≥ 80%
[6]
  inhibition of growth at 200 ppm: ≥ 80%
Fusarium culmorum [2]
  pest or weed control at 200 ppm: ≥ 80%
other
  melting point: 212 to 215 °C
Fusarium culmorum [3]
  inhibition of growth at 200 ppm: ≥ 80%

## C=C(C)CC(Cc1ccccc1)C(=O)Nc1cc2cccc(F)c2nc1C (stereo not shown) [Compound E-92, 2-benzyl-N-(8-fluoro-2-methyl-3-quinolyl)-4-methyl-pent-4-enamide]
[1]
  inhibition of growth at 200 ppm: ≥ 80%
Fusarium culmorum [2]
  pest or weed control at 200 ppm: ≥ 80%
other
  melting point: 97 to 99 °C
Fusarium culmorum [3]
  inhibition of growth at 200 ppm: ≥ 80%
[4]
  inhibition of growth at 200 ppm: ≥ 80%

## C=C(C)CC(Cc1ccccc1)C(=O)Nc1cnc2c(F)cccc2c1 (stereo not shown) [Compound E-94, 2-benzyl-N-(8-fluoro-3-quinolyl)-4-methyl-pent-4-enamide]
[1]
  inhibition of growth at 200 ppm: ≥ 80%
other
  melting point: 170 to 172 °C
Fusarium culmorum [3]
  inhibition of growth at 200 ppm: ≥ 80%
[4]
  inhibition of growth at 200 ppm: ≥ 80%
[5]
  inhibition of growth at 200 ppm: ≥ 80%

## C=C(C)C[C@](C)(Cc1ccccc1)C(=O)Nc1cnc2c(F)cccc2c1 [Compound F-22, (2R)-2-benzyl-N-(8-fluoro-3-quinolyl)-2,4-dimethyl-pent-4-enamide]
[1]
  inhibition of growth at 200 ppm: ≥ 80%
other
  melting point: 133 to 135 °C
Fusarium culmorum [3]
  inhibition of growth at 200 ppm: ≥ 80%
[4]
  inhibition of growth at 200 ppm: ≥ 80%
[5]
  inhibition of growth at 200 ppm: ≥ 80%
